# Measured values as given in paper PMC4193777 (PLoS ONE, 2014).
# Target: T1, FPR2 (Homo sapiens, UniProt P25090)
# T1 construct: Human peripheral blood neutrophils were isolated from buffy coats from healthy blood donors; endogenous in cells; host or cells: primary human peripheral blood neutrophils from buffy coats of healthy donors
# T1 sequence (P25090 1-351): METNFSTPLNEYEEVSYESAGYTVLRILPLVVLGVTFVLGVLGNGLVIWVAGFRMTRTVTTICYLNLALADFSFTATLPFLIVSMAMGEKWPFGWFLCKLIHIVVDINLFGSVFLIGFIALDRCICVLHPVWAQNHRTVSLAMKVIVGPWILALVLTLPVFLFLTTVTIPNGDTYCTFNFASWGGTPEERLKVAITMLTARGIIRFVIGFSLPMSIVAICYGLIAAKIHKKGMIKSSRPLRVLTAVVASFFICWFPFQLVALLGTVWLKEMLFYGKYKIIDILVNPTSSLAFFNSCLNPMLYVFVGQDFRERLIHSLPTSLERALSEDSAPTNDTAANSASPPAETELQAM
# Assay: Neutrophil NADPH-oxidase activity (superoxide release), direct activation of naive cells
# Type: cell-based
# Description: Human peripheral blood neutrophils were isolated from buffy coats from healthy blood donors using dextran sedimentation and Ficoll-Paque gradient centrifugation as described. The remaining erythrocytes were disrupted by hypotonic lysis, the neutrophils were washed twice, resuspended in KRG, and stored on melting ice until use. This isolation procedure permits cells to be purified with minimal granule mobilization.
# The NADPH-oxidase activity was determined using isoluminol-enhanced chemiluminescence (CL), [27]. The CL activity was measured in a six-channel Biolumat LB 9505 (Berthold Co., Wildbad, Germany), using disposable 4-ml polypropylene tubes with a 900 µl reaction mixture containing 10^5 cells, isoluminol (2×10^−5 M) and HRP (2 U). The tubes were equilibrated in the Biolumat for 5 min at 37°C, after which the stimulus (100 µl) was added and the light emission was recorded continuously. Receptor desensitized cells were defined as naïve (non-desensitized) cells that had first been stimulated with a receptor specific agonist and returned to baseline after the resulting release of superoxide before a second stimulation. When reactivation experiments were performed with antagonists, the antagonists were added to the CL reaction mixture 1 min before the second stimulation. For studies with signaling inhibitors, cells were incubated with inhibitors at 37°C for 15 min before agonist addition. Control cells received no treatment but were incubated under the same conditions.
# Data analysis was performed using GraphPad Prism 6.0 (Graphpad Software, San Diego, CA, USA).
# Representative experiments out of more than five are shown and an arrow indicates the time point for agonist addition. Abscissa: Time of study (min); ordinate: Superoxide production (Mcpm).
smiles,measurement,setting,value
CSCC[C@H](NC(=O)[C@@H](NC(=O)[C@H](CCSC)NC(=O)[C@H](Cc1ccc(O)cc1)NC(=O)[C@H](CCCCN)NC(=O)[C@@H](N)Cc1c[nH]c2ccccc12)C(C)C)C(N)=O [WKYMVM],"concentration inducing comparable sub-maximum response, pair 1","first stimulation of naive neutrophils, 10 nM WKYMVM≈100 nM F2Pal10",10 nM
same,"concentration inducing comparable sub-maximum response, pair 2","first stimulation of naive neutrophils, 25 nM WKYMVM≈250 nM F2Pal10",25 nM
same,"concentration inducing comparable sub-maximum response, pair 3","first stimulation of naive neutrophils, 40 nM WKYMVM≈500 nM F2Pal10",40 nM
same,time to peak of radical production,upon stimulation of neutrophils,around one
